Results reported in patent US8420052B2, “Imaging agents useful for identifying AD pathology” (Siemens Medical Solutions USA, Inc., priority 2008, dated 2013).

Tests used:
[1] = target: synthetic beta-Amyloid-42 (Homo sapiens, UniProt P05067); test: Amyloid fibril (synthetic A-Beta42) binding assay; details: 10 uM synthetic beta-Amyloid-42, 90 min; compared with 18F-PiB
Method: Amyloid Fibril (Synthetic A-Beta42) Binding Assay Incubation of various concentration of [F18]-compound (starting with 200 nM cold compound and 100 μCi of F18-compound) with or without 10 μM of synthetic beta-Amyloid-42 for 90 min Filter through G/F glass fiber, wash filter 2 times with 20% ethanol/PBS at room temperature, count the radioactivity, and measure the KD value.

[2] = system: human brain slices from AD patients; test: Grey to white matter binding of tracers on human AD brain slices under various washing conditions; details: EtOH:water washes
Method: A study was conducted to examine the grey to white matter binding ratios for 2 different tracers: 18F-W372 and 18F-PiB. After the human brain slices from AD patients were incubated with a given tracer for 1 hr, the slices were washed with various EtOH:water solutions in an attempt to optimize the grey to white matter ratios. The results were surprising and unexpected in view of previous work performed by other researchers.

[3] = Mouse metabolism studies (organ uptake and metabolites); format: in vivo; details: mice, tail-vein
Method: Approximately 400 μCi of [F-18]W372 (at a volume of 200 μL) was injected via tail-vein into mice. The animals were sacrificed at 5 minutes (n=3) and 30 minutes (n=3) post-injection. Whole blood was obtained, weighed, and centrifuged at 13,000 RPM (3 minutes) to isolate plasma. The brain, kidneys, and liver were harvested, weighed, and homogenized in lysis buffer. 400 μL of each sample was subsequently removed, mixed with an equal volume of chloroform/methanol (1:1), vigorously vortexed, and placed on dry ice for 3 minutes. After thawing, another centrifugation step at 13,000 RPM (7 minutes) allowed for the separation of lipid (CHCl3) and aqueous (MeOH/H2O) phases. The hydrophobic and hydrophilic fractions were then removed, counted for radioactivity in a PerkinElmer Wizard gamma counter, and finally analyzed by Radio-HPLC (Raytest GmbH/Agilent).

[4] = Mouse brain microPET imaging; format: in vivo, mice
Method: Mouse Brain MicroPET Imaging
FIGS. 11 and 12 show the results of mouse brain imaging with 18F-W372 in WT and APP mice. […] There is not much difference between APP and WT mice, but both App mice do appear to be slightly better retained after 13 min (App:WT=1.5:1).
FIGS. 14a and 14b show a comparison of brain uptake between 18F-PiB and 18F-W372 using dynamic microPET scanning in young and old mice. […] The rapid washout of [18F]W372 is presumably a major factor for its low non-specific binding, yet the washout is slow enough to distinguish WT from APP.

[5] = system: amyloid plaques and fibrils in human brain slices; test: Human brain slice competition assay using autoradiography; format: binding; details: radiolabeled tracer approx. 20 uCi, 90 min rt, lower = more displacement; for _max low dose (percent dose remaining relative to control with no blocker): blocker 0.25 uM; for _max high dose (percent dose remaining relative to control with no blocker): blocker 2.5 uM
Method: Human Brain Slice Competition Assay Using Autoradiography
Briefly, 5 micron thick human brain slices from regions of the brain bearing high amyloid plaque and fibril burden were incubated with approximately 20 uCi of a radiolabeled tracer in 2.5%:2.5%:95% DMSO:EtOH:PBS in the presence of blocker (2.5 and 0.25 uM total concentration) or absence of blocker (control). The slices were incubated at rt for 90 min. The slices were then quickly washed in PBS, followed by 70% EtOH:PBS for 2 min, then 30% EtOH:PBS for 2 min and then quickly washed with PBS. The slices were dried for 30 min and then exposed on autoradiographic film for 20 min. The brain slices were then removed from the slide and the radioactivity counted in a gamma counter. The percent dose remaining, relative to a control with no blocker, at 0.25 uM is represented in the “_max low dose” column. The percent dose remaining, relative to a control with no blocker, at 2.5 uM is represented in the “_max high dose” column.

[6] = target: 18F-PiB binding sites, amyloid plaque and fibril in human brain slices (Homo sapiens, UniProt P05067); test: Human AD brain slice competition against 18F-PiB (IC50); details: for IC50: tracer 18F-PiB, human AD brain slices, blocker 0.01 to 10 uM
18F-PiB binding sites, amyloid plaque and fibril in human brain slices, sequence (P05067 672-711 limits assumed): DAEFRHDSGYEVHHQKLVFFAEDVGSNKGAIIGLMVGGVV
Method: (§1) The slices were incubated at room temperature for 90 min. The slices were then quickly washed in PBS, followed by 70% EtOH:PBS for 2 min, then 30% EtOH:PBS for 2 min and then quickly washed with PBS. The slices were dried for 30 min and then exposed on autoradiographic film for 20 min. The brain slices were then removed from the slide and the radioactivity counted in a gamma counter. The percentage of blocking versus the concentrations of blocker was then plotted, and IC50 was calculated based on the curve.

[7] = target: 18F-W372 binding sites, amyloid plaque and fibril in human brain slices (Homo sapiens, UniProt P05067); test: Human AD brain slice competition against 18F-W372 (IC50); details: tracer 18F-W372, blocker 0.01 to 10 uM
18F-W372 binding sites, amyloid plaque and fibril in human brain slices, sequence (P05067 whole entry): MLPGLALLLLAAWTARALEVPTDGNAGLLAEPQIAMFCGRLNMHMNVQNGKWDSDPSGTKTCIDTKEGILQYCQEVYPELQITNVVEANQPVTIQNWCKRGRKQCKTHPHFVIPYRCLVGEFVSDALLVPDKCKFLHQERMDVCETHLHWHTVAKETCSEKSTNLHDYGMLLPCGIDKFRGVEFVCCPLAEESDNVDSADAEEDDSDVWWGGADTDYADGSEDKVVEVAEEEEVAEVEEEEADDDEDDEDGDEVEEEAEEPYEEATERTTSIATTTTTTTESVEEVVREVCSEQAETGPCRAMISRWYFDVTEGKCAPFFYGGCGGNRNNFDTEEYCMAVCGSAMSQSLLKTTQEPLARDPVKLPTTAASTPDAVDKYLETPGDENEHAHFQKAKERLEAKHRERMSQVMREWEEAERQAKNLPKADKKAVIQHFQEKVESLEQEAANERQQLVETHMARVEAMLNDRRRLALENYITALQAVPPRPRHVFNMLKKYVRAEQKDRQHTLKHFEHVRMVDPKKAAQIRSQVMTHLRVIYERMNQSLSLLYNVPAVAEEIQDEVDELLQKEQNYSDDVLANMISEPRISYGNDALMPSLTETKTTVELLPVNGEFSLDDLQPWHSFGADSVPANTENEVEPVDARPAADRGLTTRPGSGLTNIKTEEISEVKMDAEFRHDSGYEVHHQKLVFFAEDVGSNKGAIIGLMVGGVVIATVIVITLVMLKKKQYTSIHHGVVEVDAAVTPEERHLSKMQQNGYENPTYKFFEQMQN
Method: as §1

synthetic beta-Amyloid-42, sequence (P05067 672-713 limits assumed): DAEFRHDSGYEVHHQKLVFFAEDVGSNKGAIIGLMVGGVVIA

## COc1ccc2c(n1)sc1nc(-c3ccc([18F])nc3)cn12 [Compound 18F-W372]
[1]
  KD value, synthetic amyloid fibril: lower KD value compared with the known compound 18F-PiB
[2]; 1 hr incubation
  grey to white matter binding ratios: excellent grey to white matter binding ratios
[2]
  non-specific (white matter) binding: lower non-specific binding than 18F-PiB
[3]; 5 minutes post-injection
  brain uptake: 3.8 % ID/g
[3]; 30 minutes post-injection
  brain uptake: 0.47 % ID/g
[4]; 30 minute dynamic scans, young/old, WT/App mice
  brain washout (microPET): sufficiently slow washout such that one can distinguish WT from APP mice
[4]; WT and APP mice
  brain uptake (microPET): > 9 % ID/g

## Oc1ccc(-c2cc3ccccn3c2)cc1 [Compound W103]
[5]
  _max low dose (percent dose remaining relative to control with no blocker): 35.38%
  _max high dose (percent dose remaining relative to control with no blocker): 3.50%

## CNc1ccc2c(c1)[nH]c1cc(OCc3ccccc3)ccc12 [Compound W104]
[5]
  _max low dose (percent dose remaining relative to control with no blocker): 48.35%
  _max high dose (percent dose remaining relative to control with no blocker): 34.77%

## CNc1ccc2c(c1)[nH]c1cc(OCCF)ccc12 [Compound W106]
[5]
  _max low dose (percent dose remaining relative to control with no blocker): 46.04%
  _max high dose (percent dose remaining relative to control with no blocker): 21.03%

## COc1ccc2c(c1)sc1nc(-c3ccc(F)cc3)cn12 [Compound W119]
[5]
  _max high dose (percent dose remaining relative to control with no blocker): 7.85%

## CNc1ccc(-c2nc3ccc(OC)cc3s2)cn1 [Compound W184]
[5]
  _max high dose (percent dose remaining relative to control with no blocker): 8.05%

## CNc1ccc(-c2ccc3scnc3c2)cc1 [Compound W189, 4-(benzo[d]thiazol-5-yl)-N-methylaniline]
[5]
  _max high dose (percent dose remaining relative to control with no blocker): 9.53%

## COc1ccc2c(n1)sc1nc(-c3ccc(F)cc3)cn12 [Compound W332]
[6]
  IC50: 79 nM

## COc1ccc2c(n1)sc1nc(-c3ccc(F)nc3)cn12 [Compound W372, 7-Methoxy-2(6-fluoropyridin-3-yl)imidazo[2,1-b]8-pyridinothiazole]
[6]; human AD brains
  competition with 18F-PiB for binding sites / binding affinity relative to PiB: strongly competes with 18F-PiB for binding sites in human AD brains
[6]
  IC50: 73 nM
[7]
  IC50: 37 nM

## COc1ccc2c(c1)oc1nc(-c3ccc(F)cn3)cn12 [Compound W380, 7-methoxy-2-(5-fluoro-2-pyridyl)-imidazo[2,1-b]benzoxazole]
[6]
  IC50: 73 nM

## COc1ccc2c(n1)oc1nc(-c3ccc(F)cc3)cn12 [Compound W386, 7-Methoxy-2(4-fluorophenyl)imidazo[2,1-b]8-pyridino-oxazole]
[6]
  IC50: 210 nM
[7]
  IC50: 71 nM

## COc1ccc2c(c1)sc1nc(-c3ccc(F)nc3)cn12 [Compound W388]
[7]
  IC50: 150 nM

## COc1ccc2c(n1)sc1nc(-c3ccc(F)c(O)c3)cn12 [Compound W389]
[6]
  IC50: 130 nM

## COc1ccc2c(n1)sc1nc(-c3cnc(F)cn3)cn12 [Compound W392, 7-methoxy-2(2-fluoropyrazin-5-yl)imidazo[2,1-b]8-pyridinothiazole]
[7]
  IC50: 210 nM

## COc1ccc2c(n1)oc1nc(-c3ccc(F)nc3)cn12 [Compound W393]
[7]
  IC50: 170 nM

## FCCOCCOCCOc1ccc2c(c1)[nH]c1c3ccccc3sc21 [DHK4-57]
[5]
  _max low dose (percent dose remaining relative to control with no blocker): 81.06%
  _max high dose (percent dose remaining relative to control with no blocker): 30.70%

## FCCOCCOCCOc1ccc2c(c1)[nH]c1ncccc12 [DHK4-58]
[5]
  _max low dose (percent dose remaining relative to control with no blocker): 88.82%
  _max high dose (percent dose remaining relative to control with no blocker): 85.78%

## CNc1ccc2c(c1)[nH]c1cc(O)ccc12 [GC3125]
[5]
  _max low dose (percent dose remaining relative to control with no blocker): 47.08%
  _max high dose (percent dose remaining relative to control with no blocker): 18.59%

## FCCCCOc1cccc(-c2cc3ccccn3c2)c1 [IN3]
[5]
  _max low dose (percent dose remaining relative to control with no blocker): 98.13%
  _max high dose (percent dose remaining relative to control with no blocker): 67.27%

## CN(CCF)c1ccc(/C=C2/C(=O)Nc3ccccc32)cc1 [OX-2, (E)-3-(4-((2-fluoroethyl)(methyl)amino)benzylidene)indolin-2-one]
[5]
  _max low dose (percent dose remaining relative to control with no blocker): 68.22%
  _max high dose (percent dose remaining relative to control with no blocker): 82.78%

## FCCNc1nc(-c2ccc3ccccc3c2)cs1 [TZ001, N-(2-fluoroethyl)-4-(naphthalen-2-yl)thiazol-2-amine]
[5]
  _max low dose (percent dose remaining relative to control with no blocker): 98.06%
  _max high dose (percent dose remaining relative to control with no blocker): 52.00%

## COc1ccc(-n2c(=O)sc3ccccc32)cc1 [UG470, 3-(4-methoxyphenyl)benzo[d]thiazol-2(3H)-one]
[5]
  _max low dose (percent dose remaining relative to control with no blocker): 81.29%
  _max high dose (percent dose remaining relative to control with no blocker): 79.87%

## CN(C)c1ccc(-c2ncc(/C=C/c3ccc(O)cc3)s2)cc1 [UG-4-69, (E)-4-(2-(2-(4-(dimethylamino)phenyl)thiazol-5-yl)vinyl)phenol]
[5]
  _max low dose (percent dose remaining relative to control with no blocker): 69.79%
  _max high dose (percent dose remaining relative to control with no blocker): 31.02%

## O=CNc1ccc2c(c1)[nH]c1cc(OCc3ccccc3)ccc12 [WZ01169]
[5]
  _max low dose (percent dose remaining relative to control with no blocker): 42.09%
  _max high dose (percent dose remaining relative to control with no blocker): 36.55%

## Nc1nc(-c2ccc3ccccc3c2)cs1 [w18]
[5]
  _max low dose (percent dose remaining relative to control with no blocker): 69.20%
  _max high dose (percent dose remaining relative to control with no blocker): 27.86%

## Oc1ccc2c(c1)[nH]c1cc(NCCF)ccc12 [w78]
[5]
  _max low dose (percent dose remaining relative to control with no blocker): 99.49%
  _max high dose (percent dose remaining relative to control with no blocker): 63.32%
